Laboratory results from patent US9156852B2, “Thieno[3,2-D]pyrimidine derivatives having inhibitory activity for protein kinases” (HANMI PHARM. CO., LTD, priority 2011, dated 2015).

Assays:
[1] = system: SK-Mel-2 cells (N-RAS mutant melanoma); test: Inhibition on cell growth of N-RAS mutant cell SK-Mel-2 (SRB); format: cell-based; conditions: Homo sapiens, 72 hours, SRB staining, described as GI50 in the method
Description: (§1) N-RAS mutant cells, SK-Mel-2 cell lines (ATCC #HTB-68™), were obtained from ATCC (American Type Culture Collection: Rockville, Md.). SK-Mel-2 cell lines were incubated in a MEM medium supplemented with 10% FBS and 1% penicillin/streptomycin (Gibco BRL) under 37° C., 5% CO2 and 95% air. The cell lines were transferred into 96-well plates at a density of 5,000 cells/well, and cultured for 18 hours or more. The cells were treated with […]˜0.1 nM of test compounds, and cultured for 72 hours.
(§2) To evaluate cell viabilities, SK-Mel-2 cell lines were fixed with 10% TCA (trichloroacetic acid), stained with SRB (sulfohodamine B), and an absorbance was measured at 540 nm. Then, GI50, i.e., the concentration of drug to cause 50% reduction in proliferation of cancer cells, were calculated therefrom. The growth rates of cancer cells were calculated by Equation 1 or 2. [(Ti−Tz)/(C−Tz)]×100 (for Ti>=Tz) [Equation 1] [(Ti−Tz/Tz)×100 (for Ti<Tz) [Equation 2]
(§3) In Equations 1 and 2, ‘Tz’ refers to a density of untreated cells, which is an absorbance in 0% cell growth groups. ‘C’ refers to a density of cells cultured by adding only medium, and ‘Ti’ refers to a density of cells treated with test compounds.
GI50 value is the concentration of a test compound when the value of Equation 1 is 50, which indicates the concentration of test compound needed to reduce the growth of cancer cells to 50%. On each measurement, test compounds were compared with a control.

[2] = biological target: RAF1 Y340D Y341D (C-RAF) (Homo sapiens (Human), UniProt P04049, Y340D/Y341D); test: RAF kinase activity, Kinase Profiling Service (Invitrogen); format: biochemical
Sequence of RAF1 Y340D Y341D (C-RAF) (P04049 whole entry Y340D/Y341D): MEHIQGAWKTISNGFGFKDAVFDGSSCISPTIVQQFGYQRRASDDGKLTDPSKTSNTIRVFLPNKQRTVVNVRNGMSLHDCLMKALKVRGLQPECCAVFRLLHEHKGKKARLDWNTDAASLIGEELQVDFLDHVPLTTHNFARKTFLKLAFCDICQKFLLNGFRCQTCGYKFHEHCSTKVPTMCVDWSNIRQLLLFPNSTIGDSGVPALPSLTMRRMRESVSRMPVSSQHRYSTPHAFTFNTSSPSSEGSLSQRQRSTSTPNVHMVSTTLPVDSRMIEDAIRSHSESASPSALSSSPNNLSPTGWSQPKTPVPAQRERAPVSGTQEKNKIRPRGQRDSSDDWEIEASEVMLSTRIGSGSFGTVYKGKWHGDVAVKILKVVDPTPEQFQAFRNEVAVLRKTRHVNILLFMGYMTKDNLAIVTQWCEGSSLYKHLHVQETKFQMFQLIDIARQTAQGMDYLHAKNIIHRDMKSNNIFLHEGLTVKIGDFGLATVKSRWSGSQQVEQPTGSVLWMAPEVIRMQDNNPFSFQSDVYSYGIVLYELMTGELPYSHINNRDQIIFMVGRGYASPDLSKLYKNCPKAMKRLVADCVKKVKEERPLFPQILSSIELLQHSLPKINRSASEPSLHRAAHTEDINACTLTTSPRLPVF
Description: (§4) The levels of enzymatic inhibition of the compounds were calculated as percent inhibition at various concentrations. Based on percent inhibition, dose-response curves were plotted using GraphPad Prism software.

[3] = biological target: B-RAF^V600E (Homo sapiens (Human), UniProt P15056, V600E); test: as above; format: biochemical; conditions: B-RAF V600E mutant; read-out: B-RAFv^600E (IC50)
Sequence of B-RAF^V600E (P15056 whole entry V600E): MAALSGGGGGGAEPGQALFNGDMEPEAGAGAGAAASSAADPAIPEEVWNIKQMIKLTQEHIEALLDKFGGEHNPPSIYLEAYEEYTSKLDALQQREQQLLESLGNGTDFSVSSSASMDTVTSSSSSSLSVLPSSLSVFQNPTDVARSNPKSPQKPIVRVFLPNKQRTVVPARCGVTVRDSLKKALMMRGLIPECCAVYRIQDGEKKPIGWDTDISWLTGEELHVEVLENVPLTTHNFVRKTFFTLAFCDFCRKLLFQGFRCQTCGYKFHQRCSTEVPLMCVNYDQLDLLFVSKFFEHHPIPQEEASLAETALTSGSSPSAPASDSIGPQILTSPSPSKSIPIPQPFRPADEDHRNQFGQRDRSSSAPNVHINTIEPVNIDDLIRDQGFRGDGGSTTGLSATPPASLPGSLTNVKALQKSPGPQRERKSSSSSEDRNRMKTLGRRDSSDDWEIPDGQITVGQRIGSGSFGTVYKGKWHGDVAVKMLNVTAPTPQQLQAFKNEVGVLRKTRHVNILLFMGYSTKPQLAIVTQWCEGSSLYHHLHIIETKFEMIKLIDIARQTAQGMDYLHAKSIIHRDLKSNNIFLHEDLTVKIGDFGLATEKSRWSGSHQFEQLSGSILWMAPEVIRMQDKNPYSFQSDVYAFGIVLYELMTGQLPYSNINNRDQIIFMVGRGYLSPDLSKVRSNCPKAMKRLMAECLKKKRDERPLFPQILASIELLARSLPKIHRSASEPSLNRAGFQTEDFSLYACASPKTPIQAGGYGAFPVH
Description: as §4

[4] = biological target: B-RAF normal type (Homo sapiens (Human), UniProt P15056); test: as above; format: biochemical
Sequence of B-RAF normal type (P15056 whole entry): as the sequence (P15056 whole entry V600E) above, with E600V counted along it
Description: as §4

[5] = system: HepG2 cells (N-RAS mutant hepatoma carcinoma cell); test: Inhibition on cell growth of N-RAS mutant cell HepG2 (SRB); format: cell-based; conditions: Homo sapiens, 72 hours, SRB staining, described as GI50 in the method
Description: as §1, with “mutant cells HepG2 cells (HCC)” for “mutant cells, SK-Mel-2”, “(ATCC # HB-8065™),” for “(ATCC #HTB-68™),”, “Md.). HepG2” for “Md.). SK-Mel-2”, “The cell lines” for “The cells”
as §2, with “HepG2” for “SK-Mel-2”
as §3
GI50 value is the concentration of test compound when the value of Equation 1 is 50, which indicates the concentration of test compound needed to reduce the growth of cancer cells to 50%. On each measurement, test compounds were compared with a control.

[6] = biological target: DDR1 (Homo sapiens (Human), UniProt Q08345); test: DDR1 kinase activity, Kinase Screening and Profiling Service (Invitrogen); format: biochemical
Sequence of DDR1 (Q08345 19-913): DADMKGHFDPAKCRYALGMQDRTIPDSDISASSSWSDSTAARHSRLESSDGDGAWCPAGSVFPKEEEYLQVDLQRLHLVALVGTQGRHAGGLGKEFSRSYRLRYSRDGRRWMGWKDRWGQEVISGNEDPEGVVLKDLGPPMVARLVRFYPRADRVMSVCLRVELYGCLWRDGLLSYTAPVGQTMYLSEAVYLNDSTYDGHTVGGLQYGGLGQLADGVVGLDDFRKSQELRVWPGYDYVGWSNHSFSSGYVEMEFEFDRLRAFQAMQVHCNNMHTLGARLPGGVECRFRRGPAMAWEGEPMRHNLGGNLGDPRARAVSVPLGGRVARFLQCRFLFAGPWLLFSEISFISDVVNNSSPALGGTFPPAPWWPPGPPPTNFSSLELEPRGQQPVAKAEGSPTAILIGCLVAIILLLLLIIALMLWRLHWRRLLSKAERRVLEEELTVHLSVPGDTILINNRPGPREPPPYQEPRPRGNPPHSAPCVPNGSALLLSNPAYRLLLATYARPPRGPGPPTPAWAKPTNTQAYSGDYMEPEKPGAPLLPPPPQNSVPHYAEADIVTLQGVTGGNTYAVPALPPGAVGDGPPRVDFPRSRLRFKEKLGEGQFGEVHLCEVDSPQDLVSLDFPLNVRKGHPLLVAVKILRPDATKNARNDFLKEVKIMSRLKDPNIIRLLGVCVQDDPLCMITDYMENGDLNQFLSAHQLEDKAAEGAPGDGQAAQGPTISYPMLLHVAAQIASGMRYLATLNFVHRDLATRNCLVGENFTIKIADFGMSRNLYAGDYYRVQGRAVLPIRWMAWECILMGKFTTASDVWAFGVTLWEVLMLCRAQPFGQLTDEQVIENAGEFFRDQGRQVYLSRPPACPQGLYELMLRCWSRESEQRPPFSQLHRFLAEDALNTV
Description: (§5) As such, the compounds prepared in Examples were tested for inhibitory activity against FMS, DDR1 and DDR2 kinases using Kinase Screening and Profiling Service (Invitrogen, U.S.).

[7] = biological target: FMS (Homo sapiens (Human), UniProt P07333); test: FMS kinase activity, Kinase Screening and Profiling Service (Invitrogen); format: biochemical
Sequence of FMS (P07333 20-972): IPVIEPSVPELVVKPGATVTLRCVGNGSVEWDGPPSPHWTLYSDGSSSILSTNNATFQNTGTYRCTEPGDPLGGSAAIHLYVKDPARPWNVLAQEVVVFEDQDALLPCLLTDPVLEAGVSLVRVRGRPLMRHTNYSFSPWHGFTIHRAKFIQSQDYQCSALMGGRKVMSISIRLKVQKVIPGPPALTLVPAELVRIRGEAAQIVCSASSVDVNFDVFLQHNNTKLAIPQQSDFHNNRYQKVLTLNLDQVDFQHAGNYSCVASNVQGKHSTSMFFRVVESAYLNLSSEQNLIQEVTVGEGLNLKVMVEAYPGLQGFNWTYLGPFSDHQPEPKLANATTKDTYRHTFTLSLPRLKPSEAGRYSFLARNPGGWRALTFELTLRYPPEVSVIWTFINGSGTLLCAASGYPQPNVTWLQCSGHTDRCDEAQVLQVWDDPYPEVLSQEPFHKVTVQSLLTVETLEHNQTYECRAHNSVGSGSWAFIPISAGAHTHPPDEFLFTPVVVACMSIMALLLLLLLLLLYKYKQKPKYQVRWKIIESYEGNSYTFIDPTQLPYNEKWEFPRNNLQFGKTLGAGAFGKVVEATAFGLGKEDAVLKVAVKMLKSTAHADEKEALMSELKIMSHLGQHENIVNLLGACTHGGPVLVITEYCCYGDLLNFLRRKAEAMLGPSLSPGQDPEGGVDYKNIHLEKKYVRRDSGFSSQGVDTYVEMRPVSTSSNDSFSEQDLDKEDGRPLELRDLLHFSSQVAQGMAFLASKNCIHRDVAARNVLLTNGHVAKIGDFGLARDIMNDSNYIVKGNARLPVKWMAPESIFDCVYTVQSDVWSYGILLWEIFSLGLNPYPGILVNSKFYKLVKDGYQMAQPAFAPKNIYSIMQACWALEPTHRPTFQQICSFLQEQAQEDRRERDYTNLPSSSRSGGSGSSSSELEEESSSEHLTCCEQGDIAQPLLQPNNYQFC
Description: as §5

[8] = biological target: DDR2 (Homo sapiens (Human), UniProt Q16832); test: DDR2 kinase activity, Kinase Screening and Profiling Service (Invitrogen); format: biochemical
Sequence of DDR2 (Q16832 22-855): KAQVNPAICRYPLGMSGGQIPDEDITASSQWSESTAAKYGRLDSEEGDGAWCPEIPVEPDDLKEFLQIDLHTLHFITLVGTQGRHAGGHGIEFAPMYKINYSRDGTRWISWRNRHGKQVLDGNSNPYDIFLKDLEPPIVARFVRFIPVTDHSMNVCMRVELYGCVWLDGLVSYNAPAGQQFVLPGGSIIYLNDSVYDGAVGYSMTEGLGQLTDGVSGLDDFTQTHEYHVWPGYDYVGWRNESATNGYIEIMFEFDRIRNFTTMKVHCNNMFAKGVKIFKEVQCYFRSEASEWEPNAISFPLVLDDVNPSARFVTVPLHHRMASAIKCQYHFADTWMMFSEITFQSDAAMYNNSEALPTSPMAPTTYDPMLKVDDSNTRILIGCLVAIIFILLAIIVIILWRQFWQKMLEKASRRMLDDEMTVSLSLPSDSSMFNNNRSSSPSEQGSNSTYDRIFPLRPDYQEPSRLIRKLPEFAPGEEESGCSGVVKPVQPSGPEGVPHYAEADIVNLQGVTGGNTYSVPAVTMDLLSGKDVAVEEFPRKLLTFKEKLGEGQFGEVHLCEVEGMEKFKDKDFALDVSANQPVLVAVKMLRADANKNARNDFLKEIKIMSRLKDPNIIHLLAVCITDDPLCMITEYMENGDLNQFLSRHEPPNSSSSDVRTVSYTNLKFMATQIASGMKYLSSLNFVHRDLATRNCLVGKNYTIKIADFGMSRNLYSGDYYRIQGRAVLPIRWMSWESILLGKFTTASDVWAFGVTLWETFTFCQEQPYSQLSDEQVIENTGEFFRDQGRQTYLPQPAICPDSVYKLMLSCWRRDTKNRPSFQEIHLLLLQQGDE
Description: as §5

Structure (SMILES)	IC50 [1]	IC50 [2]	IC50 [3]	IC50 [4]	IC50 [5]	IC50 [6]	IC50 [7]	IC50 [8]
Cc1ccc2c(Nc3ccc(OC(F)F)cc3)nccc2c1NC(=O)c1csc2c(N)ncnc12 [Example 50, 4-amino-N-(1-((4-(difluoromethoxy)phenyl)amino)-6-methylisoquinolin-5-yl)thieno[3,2-d]pyrimidine-7-carboxamide]	163 nM	32 nM	26 nM	128 nM	44 nM	–	–	–
Cc1ccc2c(Nc3cccc(Cl)c3F)nccc2c1NC(=O)c1csc2c(N)ncnc12 [Example 116, 4-amino-N-(1-((3-chloro-2-fluorophenyl)amino)-6-methylisoquinolin-5-yl)thieno[3,2-d]pyrimidine-7-carboxamide]	76 nM	5 nM	7 nM	56 nM	38 nM	23 nM	10 nM	44 nM
CC(=O)c1ccc(Nc2nccc3c(NC(=O)c4csc5c(N)ncnc45)c(C)ccc23)cc1 [Example 83, N-(1-((4-acetylphenyl)amino)-6-methylisoquinolin-5-yl)-4-aminothieno[3,2-d]pyrimidine-7-carboxamide]	60 nM	7 nM	5 nM	12 nM	30 nM	5 nM	4 nM	10 nM
Cc1ccc2c(Nc3ccc(Cl)c(CN(C)C)c3)nccc2c1NC(=O)c1csc2c(N)ncnc12 [Example 59, 4-amino-N-(1-((4-chloro-3-((dimethylamino)methyl)phenyl)amino)-6-methylisoquinolin-5-yl)thieno[3,2-d]pyrimidine-7-carboxamide]	236 nM	6 nM	7 nM	42 nM	47 nM	–	–	–
CCCS(=O)(=O)Nc1ccc(F)c(C(=O)c2c[nH]c3ncc(-c4ccc(Cl)cc4)cc23)c1F [Control, Vemurafenib, reference compound]	> 1000 nM	–	–	–	> 1000 nM	> 1000 nM	> 1000 nM	> 1000 nM
Cc1ccc2c(Nc3ccc(F)c(Cl)c3)nccc2c1NC(=O)c1csc2c(N)ncnc12 [Example 105, 4-amino-N-(1-((3-chloro-4-fluorophenyl)amino)-6-methylisoquinolin-5-yl)thieno[3,2-d]pyrimidine-7-carboxamide]	210 nM	15 nM	31 nM	179 nM	90 nM	71 nM	50 nM	181 nM
Cc1ccc2c(Nc3cccc(Cl)c3)nccc2c1NC(=O)c1csc2c(N)ncnc12 [Example 38, 4-amino-N-(1-((3-chlorophenyl)amino)-6-methylisoquinolin-5-yl)thieno[3,2-d]pyrimidine-7-carboxamide]	97 nM	–	–	–	41 nM	–	–	–
COc1ccc(Nc2nccc3c(NC(=O)c4csc5c(N)ncnc45)c(C)ccc23)cc1 [Example 16, 4-amino-N-(1-((4-methoxyphenyl)amino)-6-methylisoquinolin-5-yl)thieno[3,2-d]pyrimidine-7-carboxamide]	52 nM	5 nM	32 nM	15 nM	24 nM	–	–	–
Cc1ccc2c(Nc3ccc(Cl)cc3)nccc2c1NC(=O)c1csc2c(N)ncnc12 [Example 1, 4-amino-N-(1-((4-chlorophenyl)amino)-6-methylisoquinolin-5-yl)thieno[3,2-d]pyrimidine-7-carboxamide]	56 nM	23 nM	22 nM	121 nM	27 nM	2 nM	1 nM	5 nM
